Where “and” joins values, the source holds several entries; their conditions need not be identical. Equal entries are not always repeated. Where two headings read alike, the source gives them in different places. Non-standard residues stand in square brackets, D forms with d. Residues, ends and D or L forms follow the SMILES beside them. No end group written: not given here. Phe(4-NH2) = Nc1ccc(C[C@H](N)C(=O)O)cc1; Phe(2-F) = N[C@@H](Cc1ccccc1F)C(=O)O; d(aIle) = CC[C@H](C)[C@@H](N)C(=O)O; hArg = N=C(N)NCCCC[C@H](N)C(=O)O; hPhe = N[C@@H](CCc1ccccc1)C(=O)O; Cit = NC(=O)NCCC[C@H](N)C(=O)O; dTle = CC(C)(C)[C@@H](N)C(=O)O; Phg = N[C@H](C(=O)O)c1ccccc1; hLys = NCCCCC[C@H](N)C(=O)O; hSer = N[C@@H](CCO)C(=O)O; ChCar = not defined here; dAbu = CC[C@@H](N)C(=O)O; dia = not defined here
Tests used:
Type in all cases: biochemical
[1] = molecular target: human plasma kallikrein (HPK) (Homo sapiens, UniProt P03952); experiment: Inhibition of human plasma kallikrein (KI)
Chain of human plasma kallikrein (HPK) (P03952 20-638): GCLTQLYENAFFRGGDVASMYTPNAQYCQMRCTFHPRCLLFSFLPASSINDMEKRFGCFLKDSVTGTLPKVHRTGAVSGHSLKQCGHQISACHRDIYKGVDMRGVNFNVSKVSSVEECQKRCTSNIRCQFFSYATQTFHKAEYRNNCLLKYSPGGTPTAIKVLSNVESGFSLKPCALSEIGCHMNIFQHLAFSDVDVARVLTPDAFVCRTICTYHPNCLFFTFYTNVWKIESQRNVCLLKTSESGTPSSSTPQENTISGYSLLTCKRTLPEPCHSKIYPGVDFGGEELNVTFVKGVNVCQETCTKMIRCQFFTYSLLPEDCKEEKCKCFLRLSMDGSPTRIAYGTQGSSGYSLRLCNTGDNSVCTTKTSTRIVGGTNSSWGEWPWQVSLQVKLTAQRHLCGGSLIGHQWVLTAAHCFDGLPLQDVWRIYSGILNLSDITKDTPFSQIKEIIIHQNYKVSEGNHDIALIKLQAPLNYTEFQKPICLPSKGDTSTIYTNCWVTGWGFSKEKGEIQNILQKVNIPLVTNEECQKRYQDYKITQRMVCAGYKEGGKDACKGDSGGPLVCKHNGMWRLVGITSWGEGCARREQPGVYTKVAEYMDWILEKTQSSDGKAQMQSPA
Description: (§1) Assay methods were based on the cleavage of chromogenic substrate S-2266 (D-Val-Leu-Arg-pNA) (Kabi; Charlotte, N.C.) by porcine pancreatic kallikrein (Sigma Chemical Company; St. Louis, Mo.) to yield an increase in absorbance at 405 nm. By changing the substrate and enzyme, the general method has been extended to measure the inhibition of human tissue kallikrein (HTK or human urinary kallikrein HUK), human plasma kallikrein (HPK), plasmin, and urokinase (UK). In all assays, the robot dilutes the inhibitor into a series of wells and adds substrate and buffer. Chromogenic reactions are started by the addition of enzyme. Changes in the absorbance at 405 nm in an array of wells were recorded. All manipulations were performed by the instrument from reservoirs containing substrate, inhibitor, diluent (water), buffer, or enzyme.

[2] = molecular target: porcine pancreatic kallikrein (PPK) (Sus scrofa, UniProt P00752); experiment: Inhibition of porcine pancreatic kallikrein, cleavage of chromogenic substrate S-2266 (KI)
Chain of porcine pancreatic kallikrein (PPK) (P00752 8-87 limits assumed): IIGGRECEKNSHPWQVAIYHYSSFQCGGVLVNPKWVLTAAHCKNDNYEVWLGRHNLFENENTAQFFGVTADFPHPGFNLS
Chain of porcine pancreatic kallikrein (PPK) (P00752 95-246 limits assumed): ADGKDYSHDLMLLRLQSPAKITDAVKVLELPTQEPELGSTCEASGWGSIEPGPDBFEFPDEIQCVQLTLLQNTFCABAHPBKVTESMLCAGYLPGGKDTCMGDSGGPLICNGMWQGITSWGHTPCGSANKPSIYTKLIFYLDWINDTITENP

[3] = molecular target: T1, human urinary kallikrein (HUK) (Homo sapiens, UniProt P06870); experiment: Inhibition of human urinary (tissue) kallikrein (KI); conditions: read-out: KI HUK
T1 construct: Human urinary kallikrein (HUK) was purified from human urine; from tissue
T1 sequence (P06870 25-262): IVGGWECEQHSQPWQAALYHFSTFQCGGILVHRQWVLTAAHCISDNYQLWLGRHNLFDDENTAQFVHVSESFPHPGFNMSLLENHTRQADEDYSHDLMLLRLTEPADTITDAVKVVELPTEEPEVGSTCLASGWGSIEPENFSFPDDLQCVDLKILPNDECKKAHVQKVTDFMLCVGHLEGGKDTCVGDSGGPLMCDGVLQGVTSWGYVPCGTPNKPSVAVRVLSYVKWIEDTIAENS
Protocol: Human urinary kallikrein (HUK) was purified from human urine. Briefly, urine was subjected to ultrafiltration to concentrate the protein components which were applied to approtinin-CH-Sepharose affinity columns. Active fractions from these columns were next applied to Sephadex G-100 gel filtration and collected as fractions. The pH of each fraction was determined immediately upon elution, and the fraction was neutralized by addition of 2.0 ml of 2M Tris-HCL buffer, pH 8.0. Porcine pancreatic 24-kallikrein (PPK), at 50 units/mg protein; 1.0 units hydrolyses 1.0 μM BAEE (benzoyl -L-arginine ethyl ester) to N-a-benzoyl-L-arginine/minute at pH 8.7 at 25° C., was purchased from Sigma Chemical Company (St. Louis, Mo.). […] All other enzymes were purchased from Sigma Chemical Company (St. Louis, Mo.).
Dixon plots were used for data reduction and for calculation of […].
as §1

[4] = Table 5, Pro-Phe-Arg-X-Val-Gln, read-out: KI HPK
[5] = Table 5, Pro-Phe-Arg-X-Val-Gln, read-out: KI PPK
[6] = Table 4, Pro-X-Arg-Ser-Val-Gln, read-out: KI HPK
[7] = Table 4, Pro-X-Arg-Ser-Val-Gln, read-out: KI PPK
[8] = Table 2, P3 substitutions, read-out: log KI (converted)

CC(C)[C@H](NC(=O)[C@H](C)NC(=O)[C@H](CCCNC(=N)N)NC(=O)[C@H](Cc1ccccc1)NC(=O)[C@@H]1CCCN1)C(=O)N[C@@H](CCC(N)=O)C(N)=O [Ala] (H-PFRAVQ-NH2)
Ki [1, 4]: 0.536 mM
Ki [2, 5]: 131 µM and 161 µM

N=C(N)NCCC[C@H](NC(=O)[C@H](CC(N)=O)NC(=O)[C@H](CCCNC(=N)N)NC(=O)[C@H](Cc1ccccc1)NC(=O)[C@@H](N)CCCNC(=N)N)C(=O)N[C@@H](CCC(N)=O)C(N)=O [Arg-Phe-Arg-Asn-Arg-Gln] (H-RFRNRQ-NH2)
Ki ([1]; Table 6, HUK, read-out: KI HUK): 0.052 mM

CC(C)[C@H](NC(=O)[C@H](CC(N)=O)NC(=O)[C@H](CCCNC(=N)N)NC(=O)[C@H](Cc1ccccc1)NC(=O)[C@@H]1CCCN1)C(=O)N[C@@H](CCC(N)=O)C(N)=O [Asn] (H-PFRNVQ-NH2)
Ki [1, 4]: 0.244 mM
Ki [2, 5]: 58 µM and 99 µM and 67 µM
Ki ([2]; Table 5, values in [] : Dithiothreitol, read-out: KI PPK): 33 µM
Ki ([3]; Table 5, Pro-Phe-Arg-X-Val-Gln): 99 µM

CC(C)[C@H](NC(=O)[C@@H](CO)NC(=O)[C@H](CCCNC(=N)N)NC(=O)[C@H](Cc1ccccc1)NC(=O)[C@@H]1CCCN1)C(=O)N[C@@H](CCC(N)=O)C(N)=O [D-Ser] (H-PFR[dS]VQ-NH2)
Ki [2, 5]: 1120 µM

CC(C)[C@H](NC(=O)[C@H](CCO)NC(=O)[C@H](CCCNC(=N)N)NC(=O)[C@H](Cc1ccccc1)NC(=O)[C@@H]1CCCN1)C(=O)N[C@@H](CCC(N)=O)C(N)=O [Hse] (H-PFR[hSer]VQ-NH2)
Ki [1, 4]: 0.359 mM
Ki [2, 5]: 163 µM

CC(C)[C@H](NC(=O)[C@H](CO)NC(=O)[C@H](CCCNC(=N)N)NC(=O)[C@H](Cc1ccccc1F)NC(=O)[C@@H]1CCCN1)C(=O)N[C@@H](CCC(N)=O)C(N)=O [KCH-1] (H-P[Phe(2-F)]RSVQ-NH2)
Ki [1, 6]: 0.472 mM
Ki [2, 7]: 124 µM
Ki ([3]; Table 4, Pro-X-Arg-Ser-Val-Gln): 151 µM

CC(C)[C@H](NC(=O)[C@H](CO)NC(=O)[C@H](CCCNC(=N)N)NC(=O)[C@H](CCc1ccccc1)NC(=O)[C@@H]1CCCN1)C(=O)N[C@@H](CCC(N)=O)C(N)=O [KCH-2] (H-P[hPhe]RSVQ-NH2)
Ki [1, 6]: 0.545 mM
Ki [2, 7]: 402 µM

CC(C)[C@H](NC(=O)[C@H](CO)NC(=O)[C@H](CCCNC(=N)N)NC(=O)[C@@H](NC(=O)[C@@H]1CCCN1)c1ccccc1)C(=O)N[C@@H](CCC(N)=O)C(N)=O [KCH-5] (H-P[Phg]RSVQ-NH2)
KI HPK ([1]; Table 4, Pro-X-Arg-Ser-Val-Gln): ni
Ki [2, 7]: 1320 µM

CC(C)[C@H](NC(=O)[C@H](CO)NC(=O)[C@H](CCCNC(=N)N)NC(=O)[C@H](Cc1c[nH]c2ccccc12)NC(=O)[C@@H]1CCCN1)C(=O)N[C@@H](CCC(N)=O)C(N)=O [KCH-11] (H-PWRSVQ-NH2)
Ki [1, 6]: 0.449 mM
Ki [2, 7]: 230 µM

CC(C)[C@H](NC(=O)[C@H](CO)NC(=O)[C@H](CCCNC(N)=O)NC(=O)[C@H](Cc1ccccc1)NC(=O)[C@@H]1CCCN1)C(=O)N[C@@H](CCC(N)=O)C(N)=O [KIDZ-7, Pro-Phe-Cit-Ser-Val-Gln] (H-PF[Cit]SVQ-NH2)
Ki ([1]; Table 7, in mM, read-out: K1 HPK): > 5 mM
Ki ([2]; Table 7, in mM, read-out: K1 PPK): > 3000 µM

CC(C)[C@H](NC(=O)[C@H](CO)NC(=O)[C@H](CCCCCN)NC(=O)[C@H](Cc1ccccc1)NC(=O)[C@@H]1CCCN1)C(=O)N[C@@H](CCC(N)=O)C(N)=O [KIDZ-8, Pro-Phe-hLys-Ser-Val-Gln] (H-PF[hLys]SVQ-NH2)
Ki ([2]; Table 7, read-out: K1 PPK): 203 µM

CC(C)[C@H](N)C(=O)N[C@@H](Cc1ccccc1)C(=O)N[C@H](C=O)Cc1ccc(N)cc1 [KITDS-2, Val-Phe-Phe(4NH2)-aldehyde] (H-Val-Phe-[Phe(4-NH2)]-aldehyde)
Ki ([2]; Table 7, read-out: K1 PPK): 160 µM

Nc1ccc(C[C@@H](C=O)NC(=O)[C@H](Cc2ccccc2)NC(=O)[C@@H]2CCCN2C(=O)[C@@H](N)Cc2ccccc2)cc1 [KITSD-1, Phe-Pro-Phe-Phe(4NH2)-aldehyde] (H-FPF[Phe(4-NH2)]-aldehyde)
Ki ([2]; Table 7, read-out: K1 PPK): 27 µM

CC(C)[C@H](NC(=O)[C@H](CO)NC(=O)[C@H](CCCNC(=N)N)NC(=O)[C@H](Cc1ccccc1)NC(=O)CN)C(=O)N[C@@H](CCC(N)=O)C(N)=O [KKI-80, Gly-Phe-Arg-Ser-Val-Gln] (H-GFRSVQ-NH2)
Ki [2, 8]: 79.4 µM

CC(C)[C@H](NC(=O)[C@H](CO)NC(=O)[C@H](CCCNC(=N)N)NC(=O)[C@H](Cc1ccccc1)NC(=O)[C@@H](C)N)C(=O)N[C@@H](CCC(N)=O)C(N)=O [KKI-81, [D-Ala]-Phe-Arg-Ser-Val-Gln] (H-[dA]FRSVQ-NH2)
Ki [2, 8]: 50.1 µM

CC[C@@H](N)C(=O)N[C@@H](Cc1ccccc1)C(=O)N[C@@H](CCCNC(=N)N)C(=O)N[C@@H](CO)C(=O)N[C@H](C(=O)N[C@@H](CCC(N)=O)C(N)=O)C(C)C [KKI-82, [D-Aab]-Phe-Arg-Ser-Val-Gln] (H-[dAbu]FRSVQ-NH2)
Ki [2, 8]: 43.7 µM

CC(C)[C@H](NC(=O)[C@H](CO)NC(=O)[C@H](CCCNC(=N)N)NC(=O)[C@H](Cc1ccccc1)NC(=O)[C@H](N)C(C)C)C(=O)N[C@@H](CCC(N)=O)C(N)=O [KKI-83, [D-Val]-Phe-Arg-Ser-Val-Gln] (H-[dV]FRSVQ-NH2)
Ki [2, 8]: 100 µM

CC(C)[C@H](NC(=O)[C@H](CO)NC(=O)[C@H](CCCNC(=N)N)NC(=O)[C@H](Cc1ccccc1)NC(=O)[C@H](N)C(C)(C)C)C(=O)N[C@@H](CCC(N)=O)C(N)=O [KKI-84, [D-t-BuGly]-Phe-Arg-Ser-Val-Gln] (H-[dTle]FRSVQ-NH2)
Ki [2, 8]: 75.9 µM

CC[C@@H](C)[C@@H](N)C(=O)N[C@@H](Cc1ccccc1)C(=O)N[C@@H](CCCNC(=N)N)C(=O)N[C@@H](CO)C(=O)N[C@H](C(=O)N[C@@H](CCC(N)=O)C(N)=O)C(C)C [KKI-85, [D-Ile]-Phe-Arg-Ser-Val-Gln] (H-[dI]FRSVQ-NH2)
Ki ([2]; text b291, β-PPK, read-out: KI): 34 µM

CC[C@H](C)[C@@H](N)C(=O)N[C@@H](Cc1ccccc1)C(=O)N[C@@H](CCCNC(=N)N)C(=O)N[C@@H](CO)C(=O)N[C@H](C(=O)N[C@@H](CCC(N)=O)C(N)=O)C(C)C [KKI-105] (H-[d(aIle)]FRSVQ-NH2)
Ki [2, 8]: 57.5 µM

CC[C@H](C)[C@H](NC(=O)[C@H](CCCNC(=N)N)NC(=O)[C@H](C)NC(=O)[C@H](CCCCN)NC(=O)[C@H](CS)NC(=O)[C@@H]1CCCN1)C(N)=O [Pro-Cys-Lys-Ala-Arg-Ile] (H-PCKARI-NH2)
Ki ([1]; Table 6, HUK, read-out: KI HUK): 0.00018 mM
Ki ([2]; Table 6, read-out: KI PPK): 0.003 µM

CC(C)[C@H](N)C(=O)N[C@@H](Cc1ccccc1)C(=O)N[C@@H](CCCNC(=N)N)C(=O)N[C@@H](CC(N)=O)C(=O)N[C@@H](CCCNC(=N)N)C(=O)N[C@@H](CCC(N)=O)C(N)=O [Val-Phe-Arg-Asn-Arg-Gln] (H-VFRNRQ-NH2)
Ki ([1]; Table 6, HUK, read-out: KI HUK): 0.532 mM

CC(C)[C@H](N)C(=O)N[C@@H](Cc1ccccc1)C(=O)N[C@@H](CCCNC(=N)N)C(=O)N[C@@H](CC(N)=O)C(=O)N[C@@H](CC(N)=O)C(=O)N[C@@H](CCCNC(=N)N)C(N)=O [Val-Phe-Arg-Asn-Asn-Arg] (H-VFRNNR-NH2)
Ki ([1]; Table 6, HUK, read-out: KI HUK): 0.124 mM

CC(C)[C@H](N)C(=O)N[C@@H](Cc1ccccc1)C(=O)N[C@@H](CCCNC(=N)N)C(=O)N[C@@H](CC(N)=O)C(=O)N[C@@H](CO)C(=O)N[C@@H](CCCNC(=N)N)C(N)=O [Val-Phe-Arg-Asn-Ser-Arg] (H-VFRNSR-NH2)
Ki ([1]; Table 6, HUK, read-out: KI HUK): 0.194 mM

CC(C)[C@H](N)C(=O)N[C@@H](Cc1ccccc1)C(=O)N[C@@H](CCCNC(=N)N)C(=O)N[C@@H](CC(N)=O)C(=O)N[C@H](CCCNC(=N)N)C(=O)N[C@@H](CCC(N)=O)C(N)=O [Val-Phe-Arg-Asn-dArg-Gln] (H-VFRN[dR]Q-NH2)
Ki ([1]; Table 6, HUK, read-out: KI HUK): 1.57 mM

CC(C)[C@H](N)C(=O)N[C@@H](Cc1ccccc1)C(=O)N[C@@H](CCCCNC(=N)N)C(=O)N[C@@H](CC(N)=O)C(=O)N[C@@H](CCCCNC(=N)N)C(=O)N[C@@H](CCC(N)=O)C(N)=O [Val-Phe-hArg-Asn-hArg-Gln] (H-VF[hArg]N[hArg]Q-NH2)
Ki ([1]; Table 6, HUK, read-out: KI HUK): 0.298 mM
Ki ([2]; Table 6, read-out: KI PPK): 2.9 µM and 10 µM

ChCar-Phe-Arg-dia-Val-Gln (ChCar-FR[dia]VQ; reading uncertain; also: printed as ChCar-Phe-Arg-dia-Val-Gln)
Ki ([1]; Table 6, HUK, read-out: KI HUK): 0.985 mM
Ki ([2]; Table 6, read-out: KI PPK): 114 µM

From US5464820A, “Specific inhibitors of tissue kallikrein” (priority 1993, dated 1995)
